Key:
ECO 190317 [1] = assay: MIC, broth microdilution (CLSI), substance alone or ATB combined with compound at 4 or 8 μg/mL; format: cell-based, E. coli; conditions: Escherichia coli; substance alone; ECO 190317; read-out: MIC
Summary of the method: (§1)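 Growth inhibition endpoint, read visually after 16-20 h at 35° C in ambient air. Cation-adjusted Mueller-Hinton broth, inoculum 5·10^5 CFU/mL, CLSI M7-A7 protocol.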

ECO UFR39 = assay: as above; format: cell-based, E. coli; conditions: Escherichia coli; substance alone; ECO UFR39; read-out: MIC
Summary of the method: as §1

SPN 49619 = assay: as above; format: cell-based, S. pneumoniae; conditions: SPN 49619; for MIC ATB combined with compound: compound @8 μg/ml
Summary of the method: as §1

KPN UFR42 = assay: as above; format: cell-based, K. pneumoniae; conditions: Klebsiella pneumoniae; substance alone; KPN UFR42; read-out: MIC
Protocol: (§2) Compounds of the present invention were assessed against genotyped bacterial strains alone or in combination with an antibacterial. In the assays, MICs of said compounds or combination of antibiotics with fixed concentrations of said compounds (4 or 8 μg/mL) were determined by the broth microdilution method according to the Clinical Laboratory Standards Institute (CLSI-M7-A7). Briefly, compounds alone according to the invention were prepared in DMSO and spotted (2 μL each) on sterile polystyrene plates (Corning, 3788). Combinations of compounds and antibiotics dilutions were prepared in DMSO and spotted (1 μL each) on sterile polystyrene plates (Corning, 3788). Log phase bacterial suspensions were adjusted to a final density of 5·10^5 CFU/mL in cation-adjusted Mueller-Hinton broth (ca-MHB; Becton-Dickinson and Company) and added to each well (98 μL). Assays including Fosfomycin were supplemented with 25 μg/ml of Glucose-6-phosphate. Microplates were incubated for 16-20 h at 35° C. in ambient air. The MIC of the compounds was defined as the lowest concentration of said compounds that prevented bacterial growth as read by visual inspection. The MIC of ATB at each compound concentration was defined as the lowest concentration of ATB that prevented bacterial growth as read by visual inspection.

KPN BAA-1898 = assay: as above; format: cell-based, K. pneumoniae; conditions: Klebsiella pneumoniae, BAA1898; substance alone; KPN BAA-1898; read-out: MIC
Protocol: as §2

SAU 29213 = assay: as above; format: cell-based, S. aureus; conditions: for MIC ATB combined with compound: compound @8 μg/ml, SAU 29213
Summary of the method: as §1

ECL P99 [2] = assay: Fractional Inhibitory Concentration Index, checkerboard assay; format: cell-based, E. cloacae
Protocol: (§3) Method 2: Determination of the Fractional Inhibitory Concentration Index
(§4) Serial 2-fold dilutions of each antibiotic tested were prepared in ca-MHB and mixed in each well of a 96-well microtiter plate so that each row (and column) contained a fixed amount of one agent and increasing amounts of the second agent. The range of drug concentrations used in the checkerboard analysis was such that the dilution range encompassed the MIC for each drug used in the analysis. Broth microdilution plates were inoculated with each strain (Table 3) to yield 5.10^5 CFU/mL in a 100 μL final volume and incubated for 18 h at 35° C. in ambient air. Assays including Fosfomycin were supplemented with 25 μg/ml of Glucose-6-phosphate. MICs were determined after overnight incubation, and the fractional inhibitory concentration (FIC) index was calculated for each well. The FIC index (FICI) was calculated for each combination according to the equation FICI=FICa+FICb=(MIC of drug A in combination/MIC of drug A alone)+(MIC of drug B in combination/MIC of drug B alone). The FICI was interpreted as follows: synergy, FICI […]; indifference, 0.5<FIC<4; and antagonism, FICI>4. The checkerboard assays were performed in duplicate.

ECL P99 [3] = assay: MIC, broth microdilution (CLSI), substance alone or ATB combined with compound at 4 or 8 μg/mL; format: cell-based, E. cloacae; conditions: Enterobacter cloacae; substance alone; ECL P99; read-out: MIC
Summary of the method: as §1

PAE 105250 = assay: as above; format: cell-based, P. aeruginosa; conditions: PAE 105250; for MIC ATB combined with compound: compound @8 μg/ml
Summary of the method: as §1

PAE UFR48 [4] = assay: as above; format: cell-based, P. aeruginosa; conditions: PAE UFR48; for MIC ATB combined with compound: compound @8 μg/ml
Summary of the method: as §1

PAE UFR90 [5] = assay: as above; format: cell-based, P. aeruginosa; conditions: PAE UFR90; for MIC ATB combined with compound: compound @8 μg/ml
Summary of the method: as §1

KPN UFR68 = assay: Fractional Inhibitory Concentration Index, checkerboard assay; format: cell-based, K. pneumoniae
Protocol: as §3, §4

PAE UFR48 [6] = assay: as above; format: cell-based, P. aeruginosa
Protocol: as §3, §4

PAE UFR90 [7] = assay: as above; format: cell-based, P. aeruginosa
Protocol: as §3, §4

ECO 190317 [8] = assay: as above; format: cell-based, E. coli
Protocol: as §3, §4

[9] = Pseudomonas aeruginosa, substance alone, read-out: MIC

MIC (ECO 190317 [1]): 0.25 µg/mL
MIC (ECO UFR39): 0.5 µg/mL
MIC ATB combined with compound (SPN 49619; ATB ATM): <0.031 µg/mL
MIC ATB combined with compound (SPN 49619; ATB FEP): <0.031 µg/mL
MIC ATB combined with compound (SPN 49619; ATB FOS): <=0.125 μg/mL
MIC ATB combined with compound (SPN 49619; ATB MEM): <0.031 µg/mL
MIC ATB combined with compound (SPN 49619; ATB PIP): <0.031 µg/mL
MIC (SPN 49619; Streptococcus pneumoniae, substance alone, read-out: MIC): 1 µg/mL
MIC (KPN UFR42): 16 µg/mL
MIC (KPN BAA-1898): 16 µg/mL
MIC ATB combined with compound (SAU 29213; ATB ATM): >32 µg/mL
MIC ATB combined with compound (SAU 29213; ATB FEP): 1 µg/mL
MIC ATB combined with compound (SAU 29213; ATB FOS): <=0.125 μg/mL
MIC ATB combined with compound (SAU 29213; ATB MEM): 0.063 µg/mL
MIC ATB combined with compound (SAU 29213; ATB PIP): 0.5 µg/mL
MIC (SAU 29213; Staphylococcus aureus, substance alone, SAU 29213 (MSSA 29213), read-out: MIC): 32 µg/mL
MIC (ECL P99 [3]): 0.5 µg/mL
MIC ATB combined with compound (PAE 105250; ATB ATM): <0.031 µg/mL
MIC ATB combined with compound (PAE 105250; ATB FEP): <0.031 µg/mL
MIC ATB combined with compound (PAE 105250; ATB FOS): 16 µg/mL
MIC ATB combined with compound (PAE 105250; ATB MEM): 0.063 µg/mL
MIC ATB combined with compound (PAE 105250; ATB PIP): 0.063 µg/mL
MIC (PAE 105250; [9]): 8 µg/mL
MIC ATB combined with compound (PAE UFR48 [4]; ATB ATM): 2 µg/mL
MIC ATB combined with compound (PAE UFR48 [4]; ATB FEP): <0.031 µg/mL
MIC ATB combined with compound (PAE UFR48 [4]; ATB FOS): 2 µg/mL
MIC ATB combined with compound (PAE UFR48 [4]; ATB MEM): <=0.031 μg/mL
MIC ATB combined with compound (PAE UFR48 [4]; ATB PIP): <0.031 µg/mL
MIC (PAE UFR48 [4]; [9]): 8 µg/mL
MIC ATB combined with compound (PAE UFR90 [5]; ATB ATM): <0.031 µg/mL
MIC ATB combined with compound (PAE UFR90 [5]; ATB FEP): <0.031 µg/mL
MIC ATB combined with compound (PAE UFR90 [5]; ATB FOS): <0.125 µg/mL
MIC ATB combined with compound (PAE UFR90 [5]; ATB MEM): <0.031 µg/mL
MIC ATB combined with compound (PAE UFR90 [5]; ATB PIP): <0.031 µg/mL
MIC (PAE UFR90 [5]; [9]): 8 µg/mL
SMILES: NCCn1c2c(sc1=O)C1CN(C2)C(=O)N1OS(=O)(=O)[O-].[Na+] (stereo not drawn) [Example 3, sodium and 2,2,2-trifluoroacetate [5-(2-azaniumethyl)-4,9-dioxo-3-thia-5,8,10-triaza-tricyclo[6.2.1.0^2,6]undec-2(6)-en-10-yl] sulfate]
FIC index min (ECL P99 [2]; compound +ATM): 0.28
FIC index min (ECL P99 [2]; compound +FEP): 0.31
FIC index min (ECL P99 [2]; compound +FOS): ≤0.13
FIC index min (ECL P99 [2]; compound +MEM): 0.54
FIC index min (ECL P99 [2]; compound +PIP): 0.13
FIC index min (KPN UFR68; compound +ATM): 0.049
FIC index min (KPN UFR68; compound +FEP): 0.021
FIC index min (KPN UFR68; compound +FOS): 0.080
FIC index min (KPN UFR68; compound +MEM): 0.16
FIC index min (KPN UFR68; compound +PIP): 0.10
FIC index min (PAE UFR48 [6]; compound +ATM): 0.13
FIC index min (PAE UFR48 [6]; compound +FEP): 0.50
FIC index min (PAE UFR48 [6]; compound +FOS): 0.34
FIC index min (PAE UFR48 [6]; compound +MEM): 0.75
FIC index min (PAE UFR48 [6]; compound +PIP): 0.31
FIC index min (PAE UFR90 [7]; compound +ATM): 0.75
FIC index min (PAE UFR90 [7]; compound +FEP): 0.32
FIC index min (PAE UFR90 [7]; compound +FOS): 0.88
FIC index min (PAE UFR90 [7]; compound +MEM): 0.75
FIC index min (PAE UFR90 [7]; compound +PIP): 0.63
FIC index min (ECO 190317 [8]; compound +ATM): 0.27
FIC index min (ECO 190317 [8]; compound +FEP): 0.19
FIC index min (ECO 190317 [8]; compound +FOS): 0.66
FIC index min (ECO 190317 [8]; compound +MEM): 0.56
FIC index min (ECO 190317 [8]; compound +PIP): ≤0.5
